Results taken from PubChem BioAssay (NCI).
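Tested at 5 concentrations; 48 h exposure; 96-well plates; endpoints linearly interpolated, else capped at highest concentration. The concentration for full growth arrest is given as TGI.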

What was measured:
Assay in all cases: NCI-60 cell line screen, 48 h
[1] = tested on: MDA-MB-231 breast
[2] = tested on: COLO 205 colon
[3] = tested on: TK-10 renal
[4] = tested on: NCI-H23 lung
[5] = tested on: 786-0 renal
[6] = tested on: MOLT-4 leukemia
[7] = tested on: NCI-H522 lung
[8] = tested on: OVCAR-3 ovarian
[9] = tested on: DU-145 prostate
[10] = tested on: SK-MEL-5 melanoma
[11] = tested on: NCI/ADR-RES ovarian
[12] = tested on: UACC-257 melanoma
[13] = tested on: RXF 393 renal
[14] = tested on: A498 renal
[15] = tested on: UACC-62 melanoma
[16] = tested on: SNB-75 CNS
[17] = tested on: RPMI-8226 leukemia
[18] = tested on: MDA-MB-435
[19] = tested on: MCF7 breast
[20] = tested on: T-47D breast
[21] = tested on: SR leukemia
[22] = tested on: SF-268 CNS
[23] = tested on: SF-295 CNS
[24] = tested on: U251 CNS
[25] = tested on: SW-620 colon
[26] = tested on: PC-3 prostate
[27] = tested on: NCI-H226 lung
[28] = tested on: SNB-19 CNS
[29] = tested on: OVCAR-8 ovarian
[30] = tested on: HL-60(TB) leukemia
[31] = tested on: HOP-62 NSCLC
[32] = tested on: MDA-N
[33] = tested on: ACHN renal
[34] = tested on: SK-MEL-2 melanoma
[35] = tested on: MALME-3M melanoma
[36] = tested on: SN12C renal
[37] = tested on: HT29 colon
[38] = tested on: OVCAR-4 ovarian
[39] = tested on: HCT-116 colon
[40] = tested on: KM12 colon
[41] = tested on: IGROV1 ovarian
[42] = tested on: K-562 leukemia
[43] = tested on: EKVX NSCLC
[44] = tested on: SK-MEL-28 melanoma
[45] = tested on: LOX IMVI melanoma
[46] = tested on: OVCAR-5 ovarian
[47] = tested on: BT-549 breast
[48] = tested on: CAKI-1 renal
[49] = tested on: HS 578T breast
[50] = tested on: UO-31 renal
[51] = tested on: HCC-2998 colon
[52] = tested on: NCI-H460 lung
[53] = tested on: HCT-15 colon
[54] = tested on: A549 NSCLC
[55] = tested on: CCRF-CEM leukemia
[56] = tested on: SF-539 CNS
[57] = tested on: SK-OV-3 ovarian
[58] = tested on: M14 melanoma
[59] = tested on: HOP-92 NSCLC

Cn1c2nc(=Nc3ccc(Cl)cc3)n3ccc4ccccc4c3c2c(=O)n1-c1ccccc1
TGI [1]: > 100 µM | TGI [2]: > 100 µM | TGI [3]: > 100 µM | TGI [4]: > 100 µM | TGI [5]: > 100 µM | TGI [6]: > 100 µM | TGI [7]: > 100 µM | TGI [8]: > 100 µM | TGI [9]: > 100 µM | TGI [10]: > 100 µM | TGI [11]: > 100 µM | TGI [12]: > 100 µM | TGI [13]: > 100 µM | TGI [14]: > 100 µM | TGI [15]: > 100 µM | TGI [16]: > 100 µM | TGI [17]: > 100 µM | TGI [18]: > 100 µM | TGI [19]: > 100 µM | TGI [20]: > 100 µM | TGI [21]: > 100 µM | TGI [22]: > 100 µM | TGI [23]: > 100 µM | TGI [24]: > 100 µM | TGI [25]: > 100 µM | TGI [26]: > 100 µM | TGI [27]: > 100 µM | TGI [28]: > 100 µM | TGI [29]: > 100 µM | TGI [30]: > 100 µM | TGI [31]: > 100 µM | TGI [32]: > 100 µM | TGI [33]: > 100 µM | TGI [34]: > 100 µM | TGI [35]: > 100 µM | TGI [36]: > 100 µM | TGI [37]: > 100 µM | TGI [38]: > 100 µM | TGI [39]: > 100 µM | TGI [40]: > 100 µM | TGI [41]: > 100 µM | TGI [42]: > 100 µM | TGI [43]: > 100 µM | TGI [44]: > 100 µM | TGI [45]: > 100 µM | TGI [46]: > 100 µM | TGI [47]: > 100 µM | TGI [48]: > 100 µM | TGI [49]: > 100 µM | TGI [50]: > 100 µM | TGI [51]: > 100 µM | TGI [52]: > 100 µM | TGI [53]: > 100 µM

O=C1c2ccccc2C(=O)c2[nH]c(=O)c(/C=N/Nc3ccc([N+](=O)[O-])cc3)nc21
TGI [1]: > 51.6 µM | TGI [2]: 75.6 µM | TGI [3]: 51.2 µM | TGI [4]: 3.79 µM | TGI [5]: > 62.2 µM | TGI [6]: > 78.6 µM | TGI [7]: 13 µM | TGI [54]: > 100 µM | TGI [8]: > 25.3 µM | TGI [9]: 2.88 µM | TGI [10]: 2.82 µM | TGI [11]: > 61.6 µM | TGI [55]: > 100 µM | TGI [56]: 19.2 µM | TGI [12]: 5.88 µM | TGI [13]: 33.4 µM | TGI [14]: 14.2 µM | TGI [15]: 4.16 µM | TGI [17]: > 61.2 µM | TGI [18]: 3.99 µM | TGI [19]: > 44 µM | TGI [20]: > 95 µM | TGI [21]: > 65.2 µM | TGI [22]: 29.6 µM | TGI [23]: 12.4 µM | TGI [24]: > 37.6 µM | TGI [25]: > 45.4 µM | TGI [26]: > 57.9 µM | TGI [27]: 4.45 µM | TGI [28]: > 100 µM | TGI [29]: > 50.7 µM | TGI [31]: > 21.3 µM | TGI [32]: 2.63 µM | TGI [33]: 45.4 µM | TGI [34]: 12.1 µM | TGI [35]: 2.78 µM | TGI [36]: 37.2 µM | TGI [57]: > 47.3 µM | TGI [37]: > 21.5 µM | TGI [38]: > 75.5 µM | TGI [39]: > 73.1 µM | TGI [40]: > 100 µM | TGI [58]: 5.01 µM | TGI [41]: > 48.8 µM | TGI [42]: > 65.4 µM | TGI [43]: > 73 µM | TGI [59]: 38 µM | TGI [44]: > 30.5 µM | TGI [45]: > 39.2 µM | TGI [46]: > 76.5 µM | TGI [47]: 20.4 µM | TGI [48]: > 75.2 µM | TGI [49]: 21.1 µM | TGI [50]: > 48 µM | TGI [51]: 4.78 µM | TGI [52]: 4.18 µM | TGI [53]: > 38.8 µM
